{"source": "patent US4382889A", "about": "“Epoxysuccinic acid derivatives” (Taisho Pharmaceutical Co., Ltd., priority 1979, dated 1983)", "data": [{"biological_target": "T1, papain (Carica papaya, UniProt P00784)", "T1 construct": "purchased Sigma Chem. Co", "T1 sequence (P00784 134-345)": "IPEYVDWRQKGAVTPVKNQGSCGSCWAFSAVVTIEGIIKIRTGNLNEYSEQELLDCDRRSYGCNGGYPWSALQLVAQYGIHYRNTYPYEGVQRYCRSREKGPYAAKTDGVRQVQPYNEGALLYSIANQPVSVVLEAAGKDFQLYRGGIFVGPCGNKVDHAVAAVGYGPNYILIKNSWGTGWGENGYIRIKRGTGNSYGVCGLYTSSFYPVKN", "test": "Papain inhibitory activity (method of K. Hanada et al)", "assay_type": "biochemical", "details": "papain 80 ug/ml, Sigma, 2 x cry.", "protocol": "Papain inhibitory activity of the compounds of the present invention was assayed by the method of K. Hanada et al, [Argric. Biol. Chem., 42, No. 3, 523(1978)] using papain (80 ug/ml, Sigma Chem. Co., 2 x cry.).", "units": {"Papain ID50 (amount of inhibitor for 50% inhibition)": "µg"}, "values": [{"smiles": "CCOC(=O)C1OC1C(=O)N[C@@H](CC(C)C)C(=O)NC1CCCCC1", "note": "(mixture of isomers) [Compound 1, N-[N'-(DL-3-trans-ethoxycarbonyloxirane-2-carbonyl)-L-leucyl]cyclohexylamine]", "Papain ID50 (amount of inhibitor for 50% inhibition)": 0.439}, {"smiles": "CCCCCCCCCCNC(=O)[C@H](CC(C)C)NC(=O)C1OC1C(=O)OCC", "note": "(mixture of isomers) [Compound 2, N-[N'-(DL-3-trans-ethoxycarbonyloxirane-2-carbonyl)-L-leucyl]-n-decylamine]", "Papain ID50 (amount of inhibitor for 50% inhibition)": 0.227}, {"smiles": "CCOC(=O)C1OC1C(=O)N[C@@H](CC(C)C)C(=O)N1CCCC1", "note": "(mixture of isomers) [Compound 3, N-[N'-(DL-3-trans-ethoxycarbonyloxirane-2-carbonyl)-L-leucyl]pyrrolidine]", "Papain ID50 (amount of inhibitor for 50% inhibition)": 1.10}, {"smiles": "CCOC(=O)C1OC1C(=O)N[C@@H](CC(C)C)C(=O)N1CCCCC1", "note": "(mixture of isomers) [Compound 4, N-[N'-(DL-3-trans-ethoxycarbonyloxirane-2-carbonyl)-L-leucyl]piperidine]", "Papain ID50 (amount of inhibitor for 50% inhibition)": 0.417}, {"smiles": "CC(C)C[C@H](NC(=O)C1OC1C(=O)OCc1ccccc1)C(=O)N(C)c1ccccc1", "note": "(mixture of isomers) [Compound 10, N-[N'-(DL-3-trans-benzyloxycarbonyloxirane-2-carbonyl)-L-leucyl]-N-methylaniline]", "Papain ID50 (amount of inhibitor for 50% inhibition)": 0.510}, {"smiles": "CC(C)C[C@H](NC(=O)C1OC1C(=O)OCc1ccccc1)C(=O)N(C)C", "note": "(mixture of isomers) [Compound 11, N-[N'-(DL-3-trans-benzyloxycarbonyloxirane-2-carbonyl)-L-leucyl]dimethylamine]", "Papain ID50 (amount of inhibitor for 50% inhibition)": 0.184}, {"smiles": "CC(C)C[C@H](NC(=O)C1OC1C(=O)OC1CCCCC1)C(=O)NC1CCCCC1", "note": "(mixture of isomers) [Compound 13, N-[N'-(DL-3-trans-cyclohexyloxycarbonyloxirane-2-carbonyl)-L-leucyl]cyclohexylamine]", "Papain ID50 (amount of inhibitor for 50% inhibition)": 0.255}, {"smiles": "CC(C)C[C@H](NC(=O)C1OC1C(=O)OC1CCCC1)C(=O)NC1CCCC1", "note": "(mixture of isomers) [Compound 14, N-[N'-(DL-3-trans-cycloentyloxycarbonyl)-L-leucyl]cyclopentylamine]", "Papain ID50 (amount of inhibitor for 50% inhibition)": 0.187}, {"smiles": "CC(C)C[C@H](NC(=O)C1OC1C(=O)OCc1ccccc1)C(=O)N[C@@H](CC(C)C)C(=O)OCc1ccccc1", "note": "(mixture of isomers) [Compound 17, N-(DL-3-trans-benzyloxycarbonyloxirane-2-carbonyl)-L-leucyl-L-leucine benzyl ester]", "Papain ID50 (amount of inhibitor for 50% inhibition)": 0.255}, {"smiles": "CCOC(=O)C1OC1C(=O)N[C@@H](Cc1ccccc1)C(=O)N[C@@H](Cc1ccccc1)C(=O)OC", "note": "(mixture of isomers) [Compound 18, N-(DL-3-trans-ethoxycarbonyloxirane-2-carbonyl-L-phenylalanyl-L-phenylalaninemethyl ester]", "Papain ID50 (amount of inhibitor for 50% inhibition)": 29.07}, {"smiles": "COC(=O)CC[C@H](NC(=O)[C@H](CC(C)C)NC(=O)C1OC1C(=O)OCc1ccccc1)C(=O)OC", "note": "(mixture of isomers) [Compound 20, N-(DL-3-trans-benzyloxycarbonyloxirane-2-carbonyl)-L-leucyl-L-gluamic acid dimethyl ester]", "Papain ID50 (amount of inhibitor for 50% inhibition)": 0.255}, {"smiles": "CC[C@H](C)[C@H](NC(=O)[C@H](CC(C)C)NC(=O)C1OC1C(=O)OCc1ccccc1)C(=O)OC", "note": "(mixture of isomers) [Compound 21, N-(DL-3 trans-benzyloxycarbonyloxirane-2-carbonyl)-L-leucyl-L-isoleucine methyl ester]", "Papain ID50 (amount of inhibitor for 50% inhibition)": 0.169}, {"smiles": "COC(=O)[C@H](CC(C)C)NC(=O)[C@@H](CC(C)C)NC(=O)C1OC1C(=O)OCc1ccccc1", "note": "(mixture of isomers) [Compound 22, N-(DL-3-trans-benzyloxycarbonyloxirane-2-carbonyl)-D-leucyl-L-leucine methyl ester]", "Papain ID50 (amount of inhibitor for 50% inhibition)": 8.28}, {"smiles": "COC(=O)[C@@H](CC(C)C)NC(=O)[C@H](CC(C)C)NC(=O)C1OC1C(=O)OCc1ccccc1", "note": "(mixture of isomers) [Compound 23, N-(DL-3-trans-benzyloxycarbonyloxirane-2-carbonyl)-L-leucyl-D-leucine methyl ester]", "Papain ID50 (amount of inhibitor for 50% inhibition)": 0.221}, {"smiles": "COC(=O)[C@H](CCCN=C(N)N[N+](=O)[O-])NC(=O)[C@H](CC(C)C)NC(=O)C1OC1C(=O)OCc1ccccc1", "note": "(mixture of isomers) [Compound 26, N-(DL-3-trans-benzyloxycarbonyloxirane-2-carbonyl)-L-leucyl-N^G -nitro-L-arginine methyl ester]", "Papain ID50 (amount of inhibitor for 50% inhibition)": 0.139}, {"smiles": "CC(C)C[C@H](NC(=O)C1OC1C(=O)O)C(=O)N[C@@H](CCCN)C(=O)O", "note": "(mixture of isomers) [Compound 44, N-(DL-3-trans-carboxyoxirane-2-carbonyl)-L-leucyl-L-ornithine]", "Papain ID50 (amount of inhibitor for 50% inhibition)": 0.250}, {"smiles": "COC(=O)[C@@H]1CCCN1C(=O)[C@H](CC(C)C)NC(=O)C1OC1C(=O)O", "note": "(mixture of isomers) [Compound 46, N-(DL-3-trans-carboxyoxirane-2-carbonyl)-L-leucyl-L-proline methyl ester]", "Papain ID50 (amount of inhibitor for 50% inhibition)": 0.105}, {"smiles": "COC(=O)CC[C@H](NC(=O)[C@H](CC(C)C)NC(=O)C1OC1C(=O)O)C(=O)OC", "note": "(mixture of isomers) [Compound 47, N-(DL-3-transcarboxyoxirane-2-carbonyl)-L-leucyl-L-glutamic acid dimethyl ester]", "Papain ID50 (amount of inhibitor for 50% inhibition)": 0.260}, {"smiles": "CC(C)C[C@H](NC(=O)C1OC1C(=O)O)C(=O)N[C@@H](CC(C)C)C(=O)OCc1ccccc1", "note": "(mixture of isomers) [Compound 48, N-(DL-3-trans-carboxyoxirane-2-carbonyl)-L-leucyl-L-leucine benzyl ester]", "Papain ID50 (amount of inhibitor for 50% inhibition)": 0.215}, {"smiles": "CCOC(=O)C1OC1C(=O)N[C@@H](CC(C)C)C(=O)NC1CC1", "note": "(stereo partly drawn) [Compound 5]", "Papain ID50 (amount of inhibitor for 50% inhibition)": 0.284}, {"smiles": "CCOC(=O)C1OC1C(=O)N[C@@H](CC(C)C)C(=O)NC1CCCC1", "note": "(stereo partly drawn) [Compound 6]", "Papain ID50 (amount of inhibitor for 50% inhibition)": 0.410}, {"smiles": "CCOC(=O)C1OC1C(=O)N[C@@H](CC(C)C)C(=O)NCCC(C)C", "note": "(stereo partly drawn) [Compound 7]", "Papain ID50 (amount of inhibitor for 50% inhibition)": 0.410}, {"smiles": "CCOC(=O)C1OC1C(=O)N[C@@H](CC(C)C)C(=O)NCCc1ccccc1", "note": "(stereo partly drawn) [Compound 8]", "Papain ID50 (amount of inhibitor for 50% inhibition)": 0.446}, {"smiles": "CCCNC(=O)[C@H](CC(C)C)NC(=O)C1OC1C(=O)OCC", "note": "(stereo partly drawn) [Compound 9]", "Papain ID50 (amount of inhibitor for 50% inhibition)": 0.313}, {"smiles": "COC(=O)[C@@H](CC(C)C)NC(=O)[C@H](CC(C)C)NC(=O)[C@@H]1O[C@H]1C(=O)OCc1ccccc1", "note": "[Compound 24, N-(D-3-trans-benzyloxycarbonyloxirane-2-carbonyl)-L-leucyl-D-leucine methyl ester]", "Papain ID50 (amount of inhibitor for 50% inhibition)": 0.219}, {"smiles": "COC(=O)[C@@H](CC(C)C)NC(=O)[C@H](CC(C)C)NC(=O)[C@H]1O[C@@H]1C(=O)OCc1ccccc1", "note": "[Compound 25, N-(L-3-trans-benzyloxycarbonyloxirane-2-carbonyl)-L-leucyl-D-leucine methyl ester]", "Papain ID50 (amount of inhibitor for 50% inhibition)": 0.223}, {"smiles": "COC(=O)[C@H](CCSC)NC(=O)[C@H](CC(C)C)NC(=O)C1OC1C(=O)OCc1ccccc1", "note": "(stereo partly drawn) [Compound 27]", "Papain ID50 (amount of inhibitor for 50% inhibition)": 0.216}, {"smiles": "COC(=O)C1OC1C(=O)N[C@@H](CC(C)C)C(=O)N[C@@H](CCSC)C(=O)OC", "note": "(stereo partly drawn) [Compound 28]", "Papain ID50 (amount of inhibitor for 50% inhibition)": 0.156}, {"smiles": "COC(=O)[C@@H](NC(=O)[C@H](CC(C)C)NC(=O)C1OC1C(=O)OCc1ccccc1)[C@@H](C)O", "note": "(stereo partly drawn) [Compound 29]", "Papain ID50 (amount of inhibitor for 50% inhibition)": 0.35}, {"smiles": "CCOC(=O)[C@H](Cc1ccccc1)NC(=O)[C@H](CC(C)C)NC(=O)C1OC1C(=O)OCc1ccccc1", "note": "(stereo partly drawn) [Compound 31]", "Papain ID50 (amount of inhibitor for 50% inhibition)": 0.375}, {"smiles": "COC(=O)[C@H](CC(C)C)NC(=O)[C@H](CC(C)C)NC(=O)C1OC1C(=O)OCc1ccccc1", "note": "(stereo partly drawn) [Compound 32]", "Papain ID50 (amount of inhibitor for 50% inhibition)": 0.227}, {"smiles": "COC(=O)[C@@H](CC(C)C)NC(=O)[C@@H](CC(C)C)NC(=O)C1OC1C(=O)OCc1ccccc1", "note": "(stereo partly drawn) [Compound 33]", "Papain ID50 (amount of inhibitor for 50% inhibition)": 0.255}, {"smiles": "CC(C)C[C@H](NC(=O)[C@H](CC(C)C)NC(=O)C1OC1C(=O)OCc1ccccc1)C(N)=O", "note": "(stereo partly drawn) [Compound 34]", "Papain ID50 (amount of inhibitor for 50% inhibition)": 0.298}, {"smiles": "CCOC(=O)C1OC1C(=O)N[C@@H](CC(C)C)C(=O)N[C@@H](CC(C)C)C(=O)N(C)C", "note": "(stereo partly drawn) [Compound 35]", "Papain ID50 (amount of inhibitor for 50% inhibition)": 0.212}, {"smiles": "COC(=O)[C@H](Cc1ccccc1)NC(=O)[C@H](Cc1ccccc1)NC(=O)C1OC1C(=O)OCc1ccccc1", "note": "(stereo partly drawn) [Compound 37]", "Papain ID50 (amount of inhibitor for 50% inhibition)": 2.50}, {"smiles": "CCC(C)[C@H](NC(=O)C1OC1C(=O)OCc1ccccc1)C(=O)N[C@@H](Cc1c[nH]c2ccccc12)C(=O)OC", "note": "(stereo partly drawn) [Compound 38]", "Papain ID50 (amount of inhibitor for 50% inhibition)": 0.305}, {"smiles": "CCC(C)[C@H](NC(=O)C1OC1C(=O)OCc1ccccc1)C(=O)N[C@@H](Cc1ccc(O)cc1)C(=O)OC", "note": "(stereo partly drawn) [Compound 39]", "Papain ID50 (amount of inhibitor for 50% inhibition)": 0.408}, {"smiles": "CCOC(=O)CNC(=O)[C@@H](NC(=O)C1OC1C(=O)OCc1ccccc1)C(C)CC", "note": "(stereo partly drawn) [Compound 40]", "Papain ID50 (amount of inhibitor for 50% inhibition)": 0.481}, {"smiles": "CCC(C)[C@H](NC(=O)C1OC1C(=O)OCc1ccccc1)C(=O)N[C@H](C(=O)OC)C(C)C", "note": "(stereo partly drawn) [Compound 41]", "Papain ID50 (amount of inhibitor for 50% inhibition)": 0.272}]}]}
